Data from PMC12473906, “Comparing the Altis RepliGut Organoid System to MDCK Monolayers in Predicting the Oral Absorption of Lenalidomide” (Pharmaceutics, 2025).
Where two headings read alike, the source gives them in different places.

Columns and labels:
[1] = test system: human intestinal organoid-derived monolayer (RepliGut); experiment: RepliGut human jejunal organoid-derived monolayer permeability assay; settings: organoid vs gMDCK
[2] = as above; settings: human, pH 7.4
[3] = cited from earlier work; for Main Route of Absorption: as listed in Table 2, no reference given
[4] = ref PubChem; cited from earlier work
[5] = gMDCK (P-gp knockout MDCK) monolayer permeability assay; settings: dog, MDCK, pH 7.4, gMDCK Papp, reference compounds; apical to basolateral; n=3 biological replicates
[6] = test system: human intestinal organoid-derived monolayer (RepliGut)
in vitro [7] = settings: human, pH 7.4
in vitro [8] = settings: dog, MDCK, pH 7.4, gMDCK Papp
gMDCK monolayers = settings: MDCK

## CC(CCc1ccccc1)NCC(O)c1ccc(O)c(C(N)=O)c1 (stereo not drawn) [Labetalol]
[1]
  apical to basolateral apparent permeability in intestinal organoids compared with gMDCK monolayers: significantly lower
  basolateral to apical permeability in intestinal organoids compared with gMDCK cells: significantly higher
[2]
  Papp at 3 h: 0.85 ×10⁻⁶ cm/s
[3]
  Main Route of Absorption: Both
  Human Fa (fraction absorbed): 95% [9]
[4]
  LogP: 1.8

## CC(C)(C)NCC(O)COc1cccc2c1CC(O)C(O)C2 (stereo not drawn) [Nadolol]
[1]
  apical to basolateral apparent permeability in intestinal organoids compared with gMDCK monolayers: higher
  basolateral to apical permeability in intestinal organoids compared with gMDCK cells: significantly higher
[2]
  Papp at 3 h: 0.17 ×10⁻⁶ cm/s
[5]
  Papp at 3 h: 0.09 ×10⁻⁶ cm/s
[3]
  Main Route of Absorption: Paracellular
  Human Fa (fraction absorbed): 57% [9]
[6]
  Efflux Substrate: Yes
In vitro [7]
  efflux ratio at 3 h: > 4

## COCCc1ccc(OCC(O)CNC(C)C)cc1 (stereo not drawn) [Metoprolol]
[6]
  Efflux Substrate: No
  basolateral to apical permeability in intestinal organoids compared with gMDCK cells: similar
In vitro [7]
  Papp at 3 h: 10.1 ×10⁻⁶ cm/s
In vitro [8]
  Papp at 3 h: 13 ×10⁻⁶ cm/s

## CC(C)CN(C[C@@H](O)[C@H](Cc1ccccc1)NC(=O)O[C@H]1CCOC1)S(=O)(=O)c1ccc(N)cc1 [Amprenavir]
[3]
  Main Route of Absorption: Transcellular
[4]
  LogP: 2.2
[6]
  Efflux Substrate: Yes

## Lucifer yellow
gMDCK monolayers
  effect of shaking gMDCK cells during the permeability assay on permeability: did not significantly change
[6]
  apical to basolateral apparent permeability in intestinal organoids compared with gMDCK monolayers: higher
  basolateral to apical permeability in intestinal organoids compared with gMDCK cells: similar
